From ChEMBL document CHEMBL1201862, “PubChem BioAssay data set” (2004)
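Five compound concentrations were applied to cells in 96-well plates for 48 hours; endpoints were derived by simple linear interpolation of the resulting dose-response curve. GI50: concentration for 50% inhibition of growth.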 The source made the active and inactive calls. Cut-off read from the data, not from the text of the source: active = GI50 up to about 1.1 µM and inactive = higher.

How the values were obtained:
Assay in all cases: DTP human tumour cell line panel, 48 h
[1] = test system: M14
[2] = test system: K562
[3] = test system: NCI-H522
[4] = test system: OVCAR-4
[5] = test system: HCT-15
[6] = test system: UACC-62
[7] = test system: SF-295
[8] = test system: SK-MEL-28
[9] = test system: U-251
[10] = test system: MOLT-4
[11] = test system: COLO 205
[12] = test system: HL-60
[13] = test system: NCI-H23
[14] = test system: 786-0
[15] = test system: SN12C
[16] = test system: CAKI-1
[17] = test system: A498
[18] = test system: OVCAR-3
[19] = test system: HCC 2998

SMILES | GI50 [1] | GI50 [2] | GI50 [3] | GI50 [4] | GI50 [5] [µM] | GI50 [6] | GI50 [7] | GI50 [8] | GI50 [9] | GI50 [10] | GI50 [11] | GI50 [12] | GI50 [13] | GI50 [14] | GI50 [15] | GI50 [16] | GI50 [17] | GI50 [18] | GI50 [19]
O=C(CSc1nnc(-c2ccc(/N=C\c3ccc(Cl)cc3)cc2)o1)Nc1cccc([N+](=O)[O-])c1 | > 100 µM (inactive) | > 100 µM (inactive) | 27.5 µM (inactive) | > 100 µM (inactive) | > 100 | > 100 µM (inactive) | > 100 µM (inactive) | > 100 µM (inactive) | > 100 µM (inactive) | > 100 µM (inactive) | > 100 µM (inactive) | > 100 µM (inactive) | > 100 µM (inactive) | > 100 µM (inactive) | > 100 µM (inactive) | – | – | – | –
Nc1c(C(=O)Nc2ccccc2O)[n+]([O-])c2ccccc2[n+]1[O-] | > 100 µM (inactive) | 41.9 µM (inactive) | 43.4 µM (inactive) | > 100 µM (inactive) | 30.5 | – | 58.9 µM (inactive) | 79.4 µM (inactive) | 71.8 µM (inactive) | 45.8 µM (inactive) | 42.9 µM (inactive) | 25.8 µM (inactive) | 23.9 µM (inactive) | > 100 µM (inactive) | 63.2 µM (inactive) | > 100 µM (inactive) | > 100 µM (inactive) | 29.9 µM (inactive) | –
CCC12C[N+]3([O-])CCc4c([nH]c5ccccc45)C(C(=O)OC)(c4cc5c(cc4OC)N(C)C4C(O)(C(=O)OC)C(OC(C)=O)C6(CC)C=CCN7CCC54C76)CC(C3)C1O2 (stereo not drawn) | 2.17 µM (inactive) | 0.207 µM (active) | 0.063 µM (active) | 13.3 µM (inactive) | 4.47 | 0.323 µM (active) | 0.291 µM (active) | 0.236 µM (active) | 1.04 µM (active) | 0.406 µM (active) | 0.423 µM (active) | – | 0.465 µM (active) | 0.461 µM (active) | 2.33 µM (inactive) | 5.93 µM (inactive) | 1.55 µM (inactive) | 0.337 µM (active) | 2.55 µM (inactive)
O=C1C(=O)N(c2nccs2)C(=O)C(=O)C1c1nc2ccccc2s1 | > 100 µM (inactive) | – | – | > 100 µM (inactive) | > 100 | > 100 µM (inactive) | > 100 µM (inactive) | > 100 µM (inactive) | 83 µM (inactive) | – | > 100 µM (inactive) | – | > 100 µM (inactive) | > 100 µM (inactive) | > 100 µM (inactive) | > 100 µM (inactive) | – | > 100 µM (inactive) | > 100 µM (inactive)
CCc1c(C#N)c(=O)[nH]c(=O)n1CCN1CCN(C(=O)NCCCCCCNC(=O)N2CCN(CCn3c(CC)c(C#N)c(=O)[nH]c3=O)CC2)CC1 | > 100 µM (inactive) | > 100 µM (inactive) | – | > 100 µM (inactive) | > 100 | > 100 µM (inactive) | > 100 µM (inactive) | > 10 µM (inactive) | > 100 µM (inactive) | > 100 µM (inactive) | > 100 µM (inactive) | > 100 µM (inactive) | – | > 100 µM (inactive) | > 100 µM (inactive) | > 100 µM (inactive) | > 100 µM (inactive) | > 100 µM (inactive) | > 100 µM (inactive)
COc1ccccc1-c1cc(=O)c2cc(C)c(C)c(C(=O)O)c2o1 | > 100 µM (inactive) | > 100 µM (inactive) | > 100 µM (inactive) | > 100 µM (inactive) | > 100 | > 100 µM (inactive) | > 100 µM (inactive) | > 100 µM (inactive) | > 100 µM (inactive) | > 100 µM (inactive) | > 100 µM (inactive) | > 100 µM (inactive) | > 100 µM (inactive) | > 100 µM (inactive) | > 100 µM (inactive) | – | > 100 µM (inactive) | > 100 µM (inactive) | > 100 µM (inactive)
O=C1N(c2ccc(Cl)cc2)C(=O)C2(SC=NN2Cc2ccccc2)N1c1ccc(Cl)cc1 (stereo not drawn) | > 100 µM (inactive) | 9.59 µM (inactive) | 7.76 µM (inactive) | > 100 µM (inactive) | – | > 100 µM (inactive) | > 10 µM (inactive) | > 100 µM (inactive) | > 100 µM (inactive) | 7.87 µM (inactive) | > 10 µM (inactive) | 7 µM (inactive) | 8.24 µM (inactive) | > 100 µM (inactive) | > 100 µM (inactive) | – | > 100 µM (inactive) | 51.1 µM (inactive) | > 100 µM (inactive)
CC1(Cc2ccccc2)NC(=S)NC1=O (stereo not drawn) | > 100 µM (inactive) | – | > 100 µM (inactive) | – | – | – | > 100 µM (inactive) | > 100 µM (inactive) | > 100 µM (inactive) | – | > 100 µM (inactive) | > 100 µM (inactive) | > 100 µM (inactive) | > 100 µM (inactive) | > 100 µM (inactive) | > 100 µM (inactive) | – | – | > 100 µM (inactive)
